Assay results published in US10888622B2, “Nanocomplexes of modified peptides or proteins” (Trustees of Tufts College, priority 2013, dated 2021).

Test system: B16F10 cancer cells
Assay: In vitro protein transfection: delivery of RNase A into B16F10 cancer cells, cell viability by Alamar Blue assay
Assay type: cell-based
Description: Compositions A-D and Comparative Compositions A′-D′ and D″ were tested for delivery of RNase A into B16F10 cancer cells.
B16F10 cancer cells were cultured in Dulbecco's Modified Eagle Medium supplemented with 10% Fetal Bovine Serum and 1% penicillin/streptomycin at 37° C. in the presence of 5% CO2. For the protein transfection assay described below, cells were seeded in 96-well plates at a density of 10,000 cells per well a day prior to transfection.
To evaluate protein delivery efficiency, Compositions A-D and Comparative Compositions A′-D′ and D″ described in Examples 1-4 were added to B16F10 cancer cells and incubated at 37° C. for 24 hours. The protein concentration was 3.3 μg/mL in PBS. Compound EC16-63, dissolved in the same volume of PBS, was used as a control. The cell viability was determined by the Alamar Blue assay after 24 hours of incubation. All transfection studies were performed in quadruplicate.

CCCCCCCCCCCCCCC(O)CN(C)CCCN(C)CC(O)CCCCCCCCCCCCCC (centres unmarked) [Compound EC16-63]
cell viability (lipid-like compound alone, control) (24 hours incubation, compound dissolved in same volume of PBS, no protein): 90%
cytotoxicity (in words) (lipid-like compound alone, 24 hours): low cytotoxicity
